# Test results from US20040038855A1 (priority 1999, published 2004).
# Where a name gives a salt, the structure may show the parent alone. Read-outs that look alike come from different tables or passages of the source.
# Key:
# human α2C adrenoceptor = target: T1, human α2C adrenoceptor (Homo sapiens, UniProt P18825); assay: Binding affinity at the human α2C adrenergic receptor
# T1 construct: expressed in transfected cells
# T1 sequence (P18825 1-462): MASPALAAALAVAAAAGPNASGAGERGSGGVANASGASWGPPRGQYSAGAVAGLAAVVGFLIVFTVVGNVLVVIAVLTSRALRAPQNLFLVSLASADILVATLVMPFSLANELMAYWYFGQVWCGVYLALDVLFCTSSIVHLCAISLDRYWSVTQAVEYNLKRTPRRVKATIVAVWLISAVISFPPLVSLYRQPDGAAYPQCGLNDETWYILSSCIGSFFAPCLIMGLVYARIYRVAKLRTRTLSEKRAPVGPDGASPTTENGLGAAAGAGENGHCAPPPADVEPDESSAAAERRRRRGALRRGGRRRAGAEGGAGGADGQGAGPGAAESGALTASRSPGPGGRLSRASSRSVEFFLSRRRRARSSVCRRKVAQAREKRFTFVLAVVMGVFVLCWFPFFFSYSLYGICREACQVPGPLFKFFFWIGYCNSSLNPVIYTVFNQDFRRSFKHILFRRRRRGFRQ
# Excerpt: (§1) Other receptors: Cell membranes expressing human dopamine D1, D2, D4 and rat D3 receptors were purchased through BioSignal, Inc. (Montreal, Canada). Binding assays using the histamine H1 receptor; dopamine receptors; and α1A, α1B, and α2 adrenergic receptors may be carried out according to the procedures described in U.S. Pat. No. 5,780,485, the disclosure of which is hereby incorporated by reference in its entirety into this application. Binding assays using the dopamine D5 receptor may be carried out according to the procedures described in U.S. Pat. No. 5,882,855, the disclosure of which is hereby incorporated by reference in its entirety into this application. Binding assays for the human α1D adrenergic receptor may be carried out according to the procedures described in U.S. Pat. No. 6,156,518, the disclosure of which is hereby incorporated by reference in its entirety into this application.
# human 5HT1A receptor = target: T2, human 5HT1A receptor (Homo sapiens, UniProt P08908); assay: Binding affinity at the human 5HT1A receptor (3H8OHDPAT); conditions: Table 3e; read-out: h5HT1A Ki
# T2 construct: The cDNA corresponding to the 5HT1A receptor open reading frames and variable noncoding 5′ and 3′regions; expressed in transfected cells; host or cells: COS7 cells, transient, DEAE-dextran, vector pCEXV3
# T2 sequence (P08908 1-422): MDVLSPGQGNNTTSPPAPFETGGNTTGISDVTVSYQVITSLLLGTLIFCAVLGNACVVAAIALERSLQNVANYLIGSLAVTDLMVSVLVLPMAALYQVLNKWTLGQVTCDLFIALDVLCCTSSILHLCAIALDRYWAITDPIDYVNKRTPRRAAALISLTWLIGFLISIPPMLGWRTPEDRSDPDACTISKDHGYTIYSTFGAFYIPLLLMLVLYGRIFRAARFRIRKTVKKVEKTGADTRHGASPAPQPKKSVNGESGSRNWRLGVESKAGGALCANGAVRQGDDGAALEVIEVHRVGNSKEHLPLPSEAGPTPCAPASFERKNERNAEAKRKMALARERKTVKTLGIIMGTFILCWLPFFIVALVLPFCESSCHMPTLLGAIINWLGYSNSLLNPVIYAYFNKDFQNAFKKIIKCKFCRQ
# Procedure: 5HT1A Receptor: The cDNA corresponding to the 5HT1A receptor open reading frames and variable noncoding 5′ and 3′regions, was cloned into the eukaryotic expression vector pCEXV3. These constructs were transfected transiently into COS7 cells by the DEAEdextran method (Cullen, 1987), and harvested after 72 hours. Radioligand binding assays were performed as described above for the 5HT2A receptor, except that ^3H8OHDPAT was used as the radioligand and nonspecific binding was determined by the addition of 10 μM mianserin.
# human MCH1 receptor = human MCH1 receptor (Homo sapiens, UniProt Q99705); assay: Intracellular calcium response to MCH in COS-7 cells transfected with MCH1 (fluo-3, FLIPR): antagonist potency; type: cell-based; parameters: expressed in transfected cells; host or cells: COS-7
# Chain of human MCH1 receptor (Q99705 whole entry): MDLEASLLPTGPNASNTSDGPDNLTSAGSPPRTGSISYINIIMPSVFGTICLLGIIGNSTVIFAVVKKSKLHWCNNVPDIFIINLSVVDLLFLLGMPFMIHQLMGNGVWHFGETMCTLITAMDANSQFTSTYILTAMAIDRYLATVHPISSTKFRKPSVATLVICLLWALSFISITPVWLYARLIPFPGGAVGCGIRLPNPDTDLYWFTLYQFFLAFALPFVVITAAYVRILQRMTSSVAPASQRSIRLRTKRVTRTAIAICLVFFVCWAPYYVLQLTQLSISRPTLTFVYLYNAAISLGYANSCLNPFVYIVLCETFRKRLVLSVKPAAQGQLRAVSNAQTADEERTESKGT
# Excerpt: MCH1 antagonist compounds were identified by their ability to inhibit the MCH-elicited response. […]. From the IC50 values, the antagonist potency (Kb)was derived using the Cheng-Prussof correction (Lazareno and Birdsall, 1993). […]
# human α1B adrenoceptor = target: T3, human α1B adrenoceptor (Homo sapiens, UniProt P35368); assay: Binding affinity at the human α1B adrenergic receptor; conditions: Table 3d; read-out: hα1B Ki
# T3 construct: expressed in transfected cells
# T3 sequence (P35368 1-520): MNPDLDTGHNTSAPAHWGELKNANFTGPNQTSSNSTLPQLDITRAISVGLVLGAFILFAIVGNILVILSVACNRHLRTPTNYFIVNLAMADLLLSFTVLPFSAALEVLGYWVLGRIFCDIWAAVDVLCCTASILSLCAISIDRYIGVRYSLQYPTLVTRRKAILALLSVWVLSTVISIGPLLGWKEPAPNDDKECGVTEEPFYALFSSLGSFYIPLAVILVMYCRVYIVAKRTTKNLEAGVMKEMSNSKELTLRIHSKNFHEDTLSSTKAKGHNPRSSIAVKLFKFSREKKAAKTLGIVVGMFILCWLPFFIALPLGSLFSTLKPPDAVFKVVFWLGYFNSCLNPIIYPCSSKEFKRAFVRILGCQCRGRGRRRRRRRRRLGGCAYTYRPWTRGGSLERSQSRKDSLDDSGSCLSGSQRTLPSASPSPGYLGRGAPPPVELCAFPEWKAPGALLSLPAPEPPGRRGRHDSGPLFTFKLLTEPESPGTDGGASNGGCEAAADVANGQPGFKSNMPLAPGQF
# Excerpt: as §1
# human α2B adrenoceptor = target: T4, human α2B adrenoceptor (Homo sapiens, UniProt P18089); assay: Binding affinity at the human α2B adrenergic receptor
# T4 construct: expressed in transfected cells
# T4 sequence (P18089 1-450): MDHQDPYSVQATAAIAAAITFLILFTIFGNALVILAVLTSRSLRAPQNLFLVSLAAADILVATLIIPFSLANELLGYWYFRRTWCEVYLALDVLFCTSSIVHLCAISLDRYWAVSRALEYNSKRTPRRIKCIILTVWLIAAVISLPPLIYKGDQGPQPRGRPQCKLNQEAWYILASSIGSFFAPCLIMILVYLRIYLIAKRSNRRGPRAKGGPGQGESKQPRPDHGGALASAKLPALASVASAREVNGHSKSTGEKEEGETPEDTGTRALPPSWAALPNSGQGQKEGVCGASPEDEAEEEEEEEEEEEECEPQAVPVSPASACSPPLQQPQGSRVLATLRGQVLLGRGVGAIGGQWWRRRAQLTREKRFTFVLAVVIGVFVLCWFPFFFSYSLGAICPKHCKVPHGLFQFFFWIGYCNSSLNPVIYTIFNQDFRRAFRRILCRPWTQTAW
# Excerpt: as §1
Compound,"Ki (human α2C adrenoceptor; Table 3d, read-out: hα2C Ki)",Ki (human 5HT1A receptor),Ki (human α1B adrenoceptor),Ki (human α2B adrenoceptor),Kb (human MCH1 receptor; read-out: Kb (nM) hMCH1),also measured
"2-(3,4-DIFLUOROPHENYL)4,5-DIHYDROIMIDAZOLE-1-CARBOXYLIC ACID {3-[4-PHENYL-4-(4-BROMO-5-METHYLTHIOPNEN-2-YL)]-PROPYL}-AMIDE [Example 19]",174 nM,7940 nM,104 nM,–,–,"Kb (human MCH1 receptor; Table 3a, antagonist potency, read-out: hMCH1 Kb): 7 nM; Kb (human MCH1 receptor; Table 3b, antagonist potency, read-out: hMCH1 Kb): 7 nM; Kb (human MCH1 receptor; antagonist potency, inhibition of the response to 500 nM MCH, IC50 corrected by Cheng-Prussof, read-out: Kb (nM) hMCH1): 7 nM; Ki (human α2B adrenoceptor; Table 3d, read-out: hα2B Ki): 349 nM"
"COC(=O)C1=C(C)NC(=O)N(C(=O)NCCCN2CCC3(CC2)OCc2ccccc23)C1c1ccc2nonc2c1 (single isomer, unassigned) [Example 18, HYDROCHLORIDE]",–,1240 nM,418 nM,74 nM,–,Ki (human α2C adrenoceptor): 96 nM; Kb (human MCH1 receptor): 1 nM
"CCC1=C(C(=O)O)C(c2ccc(F)c(F)c2)N(C(=O)NCCCN2CCC3(CC2)OCc2ccccc23)C(=O)N1 (single isomer, unassigned; (+)) [Example 4, (+)-1,2,3,6-TETRAHYDRO-1-1N-[4-(BENZO-4′,5′(H)FURAN)PIPERIDIN-1-YL]PROPYL}-CARBOXAMIDO-4-ETHYL-6-(3,4-DIFLUOROPHENYL)-2-OXO-PYRIMIDINE-5 CARBOXYLIC ACID HYDROCHLORIDE]",–,–,–,–,187 nM,–
"COCC1=C(C(=O)OC)C(c2ccc(F)c(F)c2)N(C(=O)NCCCN2CCC(c3cccc(NC(C)=O)c3)CC2)C(=O)N1 (single isomer, unassigned; (-)) [Example 1, (−)-1,2,3,6-TETRAHYDRO-1-{N-[4-(3,-ACETAMIDO)-PHENYLPIPERIDIN-1-YL]PROPYL}CARBOXAMIDO-4-METHOXYMETHYL-6-(3,4-DIFLUORO-PHENYL)-2-OXOPYRIMIDINE-5-CARBOXYLIC ACID METHYL ESTER]",–,–,9030 nM,–,42 nM,–
"COCC1=C(C(=O)OC)[C@H](c2ccc(F)c(F)c2)N(C(=O)NCCCN2CCC(c3cccc(NC(C)=O)c3)CC2)C(=O)N1 [Example 10, (+)-1,2,3,6-TETRAHYDRO-1-{N-[4-(3,-ACETAMIDO)-PHENYLPIPERIDIN-1-YL]PROPYL}CARBOXAMIDO-4-METHOXYMETHYL-6-(3,4-DIFLUORO-PHENYL)-2-OXOPYRIMIDINE-5-CARBOXYLIC ACID METHYL ESTER]",–,–,11300 nM,–,–,"Kb (human MCH1 receptor; intracellular calcium mobilization assay, read-out: antagonist potency (Kb)): 0.3 nM"
"COC(=O)C1=C(C)NC(=O)N(C(=O)NCCCN2CCC3(CC2)OCc2ccccc23)C1c1ccc(F)c(F)c1 (stereo not drawn) [Example 20, 4-(3,4-DIFLUORPHENYL)-6-METHYL-2-OXO-3-{[3-(4-SPIRO[ISOBENZOFURAN-1(3H),4′-PIPERIDINE]PROPYL}-1,2,3,4-TETRAHYDROPYRIMIDINE-5-CARBOXYLIC ACID METHYL ESTER]",138 nM,2190 nM,407 nM,97 nM,–,–
